Experimental data as given in the NIST ThermoML archive (doi:10.1021/je900285w).

What was measured:
[1] = Crystal; DTA
[2] = Molar enthalpy of transition or fusion; details: Crystal; DSC
[3] = molar heat capacity at constant pressure; details: 101.33 kPa, Crystal

OC[C@@H](O)[C@@H](O)[C@H](O)[C@H](O)CO [D-mannitol]
Details | Molar enthalpy of transition or fusion [kJ/mol] | Normal melting temperature [°C]
[1] | – | 164.10
[2] | 54.7 | –

[3]
Details | molar heat capacity at constant pressure [J/K/mol]
80 K | 70.46
80.42 K | 71.86
84.12 K | 75.82
85 K | 76.73
87.06 K | 79
90 K | 82.37
90.04 K | 82.17
93.09 K | 85.24
95 K | 87.51
96.04 K | 88
99.05 K | 90.89
100 K | 92.23
102.11 K | 93.72
105 K | 96.64
105.11 K | 96.44
108.05 K | 98.92
110 K | 100.8
111.06 K | 101.4
114.14 K | 104
115 K | 104.8
117.16 K | 106.5
120 K | 108.7
120.11 K | 109
123.13 K | 111.5
125 K | 112.5
126.22 K | 113.8
129.26 K | 116.1
130 K | 116.2
132.27 K | 118.9
135 K | 120
135.24 K | 120.9
138.18 K | 123
140 K | 123.8
141.2 K | 125.4
144.28 K | 127.8
145 K | 127.7
147.31 K | 129.9
150 K | 131.6
150.31 K | 132.2
153.28 K | 134.4
155 K | 135.6
156.23 K | 136.7
159.25 K | 138.8
160 K | 139.7
162.37 K | 141.7
165 K | 143.9
165.49 K | 143.2
168.58 K | 146.4
170 K | 148.2
171.61 K | 149.2
174.59 K | 150.8
175 K | 152.5
177.6 K | 152.9
180 K | 156.9
180.59 K | 156.6
183.61 K | 159.2
185 K | 161.4
186.66 K | 162.1
189.7 K | 165
190 K | 166
192.75 K | 168.2
195 K | 170.6
195.81 K | 170.5
198.93 K | 173.9
200 K | 175.2
202.13 K | 176.6
205 K | 179.9
205.3 K | 180.9
208.4 K | 184.3
210 K | 184.6
211.46 K | 187.3
214.49 K | 189.7
215 K | 189.3
217.58 K | 192.1
220 K | 193.9
220.74 K | 195.4
223.88 K | 198.8
225 K | 198.6
226.99 K | 202.7
230 K | 203.2
230.03 K | 204.2
233.09 K | 207.6
235 K | 207.8
236.15 K | 210.5
239.22 K | 213.4
242.24 K | 215.7
245.33 K | 217.7
248.42 K | 220
251.42 K | 221.4
254.48 K | 223.2
257.61 K | 226.2
260.73 K | 228
263.83 K | 230.7
266.98 K | 233.6
270.15 K | 236.1
273.22 K | 239.5
276.28 K | 242.1
279.35 K | 245.4
282.41 K | 248.6
285.44 K | 251.6
288.45 K | 253.1
291.43 K | 256
294.39 K | 259
297.49 K | 260.6
300.61 K | 262.6
303.63 K | 264.9
306.66 K | 266.7
309.69 K | 268.4
312.78 K | 270.6
315.92 K | 272.9
319.06 K | 275.3
322.19 K | 277.9
325.3 K | 280.3
328.4 K | 282.6
331.49 K | 284.8
334.56 K | 286.1
337.63 K | 289
340.68 K | 291.4
343.78 K | 293.3
346.92 K | 295.5
350.05 K | 297.6
353.16 K | 299.6
356.26 K | 301.3
359.31 K | 303.7
362.51 K | 305.8
365.68 K | 308.4
368.86 K | 310.2
372.04 K | 311.9
375.21 K | 314
378.35 K | 316.7
381.44 K | 319
384.52 K | 320.9
387.64 K | 322.7
